Patent US9309239B2, “Substituted 6-fluoro-1H-pyrazolo[4,3-b]pyridines and use thereof” (BAYER INTELLECTUAL PROPERTY GMBH, priority 2010, dated 2016)

Legend:
rabbit aorta rings = assay: Vasorelaxant action in vitro (phenylephrine-contracted rabbit aorta rings); details: Oryctolagus cuniculus; concentration reducing phenylephrine-induced contraction of rabbit aorta rings by 50%
Method: B-1. Vasorelaxant Action In Vitro
Rabbits are stunned by a blow to the neck and exsanguinated. The aorta is removed, freed from adhering tissue and divided into rings of a width of 1.5 mm. The rings are placed individually under an initial tension in 5 ml organ baths with Krebs-Henseleit solution which is at 37° C., is gassed with carbogen and has the following composition (in each case mM): sodium chloride 119; potassium chloride: 4.8; calcium chloride dihydrate: 1; magnesium sulfate heptahydrate: 1.4; potassium dihydrogenphosphate: 1.2; sodium bicarbonate: 25; glucose: 10. The contractile force is determined with Statham UC2 cells, amplified and digitalized using A/D transducers (DAS 1802 HC, Keithley Instruments Munich), and recorded in parallel on linear recorders. To obtain a contraction, phenylephrine is added to the bath cumulatively in increasing concentration. After several control cycles, the substance to be investigated is added in each further run in increasing dosage in each case, and the height of the contraction achieved is compared with the height of the contraction reached in the last preceding run. This is used to calculate the concentration needed to reduce the magnitude of the control value by 50% (IC50 value). The standard administration volume is 5 μl; the DMSO content in the bath solution corresponds to 0.1%.

[1] = test system: recombinant guanylate cyclase reporter cell line; assay: Effect on a recombinant guanylate cyclase reporter cell line; assay type: cell-based; details: MEC=minimum effective concentration
Method: B-2. Effect on a Recombinant Guanylate Cyclase Reporter Cell Line
The cellular activity of the compounds according to the invention is determined using a recombinant guanylate cyclase reporter cell line, as described in F. Wunder et al., Anal. Biochem. 339, 104-112 (2005).

[2] = Pharmacokinetic parameters following intravenous administration in rats; assay type: in vivo, male Wistar rats; details: intravenous administration of 0.3 mg/kg
Method: B-4. Determination of Pharmacokinetic Parameters Following Intravenous and Oral Administration:
The pharmacokinetic parameters of the substance are determined in male CD-1 mice, male Wistar rats and female beagles. The administration volume is 1 ml/kg for mice, 5 ml/kg for rats and 0.5 ml/kg for dogs. Intravenous administration is via a formulation of species-specific plasma/DMSO (99/1) in the case of mice and rats and via water/PEG400/ethanol (50/40/10) in the case of dogs. The taking of blood from rats is simplified by inserting a silicone catheter into the right Vena jugularis externa prior to substance administration. The surgical intervention takes place one day prior to the experiment with isofluran anesthesia and administration of an analgetic (carprofen 5 mg/kg s.c.). Substance administration is as i.v. bolus in the case of mice and via a 15-minute infusion in the case of rats and dogs. Removal of blood is after 0, 0.033, 0.083, 0.17, 0.5, 1, 2, 3, 4, 6, 7 and 24 hours in the case of mice and after 0, 0.083, 0.25, 0.28, 0.33, 0.42, 0.75, 1, 2, 3, 4, 6, 7 and 24 hours in the case of dogs and rats. […]
An internal standard (ZK 228859) is added to the unknown samples, calibration samples and QCs, and the protein is precipitated using excess acetonitrile. […] The substances are quantified by peak heights or areas using extracted ion chromatograms of specific MRM experiments.
The plasma concentration/time plots determined are used to calculate the pharmacokinetic parameters such as AUC, Cmax, t1/2 (half life) and CL (clearance) employing the validated pharmacokinetic calculation program KinEx (Vers. 2.5 and 3).
Since the substance quantification is performed in plasma, it is necessary to determine the blood/plasma distribution of the substance in order to be able to adjust the pharmacokinetic parameters correspondingly. […] After centrifugation at 1000 g, the plasma concentration is measured (see above) and determined by calculating the quotient of the cb/cp values.
Following intravenous administration of 0.3 mg/kg of example 1 in rats, the following values were recorded: […]

Row | SMILES | IC50 (rabbit aorta rings) [nM] | MEC [1] [µM] | AUCnorm [2] [kg·h/L] | clearance ([2]; male, Wistar, rat, blood, read-out: CL blood (converted)) [mL/min/kg] | half-life ([2]; male, Wistar, rat, plasma) [h]
1 | COC(=O)N(CC(F)(F)F)c1c(N)nc(-n2nc(Cc3ccccc3F)c3ncc(F)cc32)nc1N [Example 13, Methyl {4,6-diamino-2-[6-fluoro-3-(2-fluorobenzyl)-1H-pyrazolo[4,3-b]pyridin-1-yl]pyrimidin-5-yl}(2,2,2-trifluoroethyl)carbamate] | 178 | 0.1 |  |  | 
2 | COC(=O)Nc1c(N)nc(-n2nc(Cc3ccccc3F)c3ncc(F)cc32)nc1N [Example 1, Methyl {4,6-diamino-2-[6-fluoro-3-(2-fluorobenzyl)-1H-pyrazolo[4,3-b]pyridin-1-yl]pyrimidin-5-yl}carbamate] | 1380 | 0.3 | 4.62 | 5.5 | 1.38
3 | COC(=O)N(C)c1c(N)nc(-n2nc(Cc3ccccc3F)c3ncc(F)cc32)nc1N [Example 7, Methyl {4,6-diamino-2-[6-fluoro-3-(2-fluorobenzyl)-1H-pyrazolo[4,3-b]pyridin-1-yl]pyrimidin-5-yl}methylcarbamate] | 194 | 0.1 |  |  | 
4 | CCOC(=O)Nc1c(N)nc(-n2nc(Cc3ccccc3F)c3ncc(F)cc32)nc1N [Example 2, Ethyl {4,6-diamino-2-[6-fluoro-3-(2-fluorobenzyl)-1H-pyrazolo[4,3-b]pyridin-1-yl]pyrimidin-5-yl}carbamate] | 763 | 0.3 |  |  | 
5 | CCOC(=O)N(C)c1c(N)nc(-n2nc(Cc3ccccc3F)c3ncc(F)cc32)nc1N [Example 8, Ethyl {4,6-diamino-2-[6-fluoro-3-(2-fluorobenzyl)-1H-pyrazolo[4,3-b]pyridin-1-yl]pyrimidin-5-yl}methylcarbamate] | 286 | 0.1 |  |  | 
